Assay results published in patent US20230094006A1, “PHARMACEUTICAL COMPOSITION CONTAINING MACROLIDE COMPOUND, PRODUCTION METHOD THEREFOR, AND METHOD USING SAME” (priority 2020, published 2023).
≈ marks a conversion by molar mass, not a printed value. Read-outs that look alike come from different tables or passages of the source.

How the values were obtained:
[1] = tested on: BCG (bacillus Calmette-Guerin) strain; assay type: in vivo, Mycobacterium bovis; settings: mice, nasal infection 1×10^6 CFU BCG; 100 mg/kg oral for 6 days from day 4; sacrifice day 10; vs negative control
[2] = tested on: M. tuberculosis; test: Resazurin microtiter MIC, arenicolide A and ethambutol alone and combined; assay type: cell-based; settings: Mycobacterium tuberculosis, 120 h
[3] = tested on: M. abscessus strain; test: Mouse non-tuberculous Mycobacterium infection model, viable cells in lung tissue; assay type: in vivo; settings: mice, nasal infection 1×10^7 CFU M. abscessus; 100 mg/kg oral for 5 days from day 3; sacrifice day 7; vs negative control, p<0.001
Procedure: As described in Example 2-2, 57BL/6 mice were nasally infected with 1×10^7/CFU of M. abscessus strain. From the 3rd day, arenicolide A was orally administered at a dose of 100 mg/body weight kg for 5 days. As a negative control, 2.5% (v/v) DMSO and 2.5% (v/v) ethanol were administered. Mice were sacrificed on day 7 from the day of infection. The number of viable tubercle bacilli in the lung tissue was investigated, and the results are shown in FIG. 3 (each, n=6, ***: p<0.001).

[4] = tested on: Mycobacterium tuberculosis Mtb H37Rv strain; test: Resazurin microtiter assay (REMA), standard strain
Procedure: MIC was measured by using a resazurin microtiter assay (REMA). Briefly, 100 μl of 7H9 liquid medium was added to each well of a 96-well microtiter plate, and two-fold serial dilutions of antibiotics were directly added to each well. Plates were covered and incubated for 5 days at 37° C. Resazurin (0.01% (w/v)) was added to each well and the plates were incubated overnight. Fluorescence intensity was measured by using a SpectraMax M3 Multi-Mode Microplate Reader (Molecular Devices, CA, USA) (ex. 560/em. 590 nm).

[5] = tested on: Mycobacterium tuberculosis (Mtb); test: Mouse tuberculosis infection model, viable Mycobacterium tuberculosis in lung tissue; assay type: in vivo; settings: C57BL/6 mice, nasal infection 2×10^4 CFU; 100 mg/kg oral for 6 days from day 4; sacrifice day 10; vs PBS negative control, p<0.001
Procedure: C57BL/6 mice (n=16) were prepared to investigate the anti-tuberculous activity of arenicolide A. Mice were nasally infected with 2×10^4/CFU of Mycobacterium tuberculosis (Mtb), and the mice were randomly divided into two groups (each, n=8). From the 4th day, arenicolide A was orally administered at a dose of 100 mg/body weight kg for 6 days. Phosphate-buffered saline (PBS) was administered as a negative control. Mice were sacrificed on day 10 from the day of infection (FIG. 2A).

[6] = tested on: M. tuberculosis mc2 6230 strain; test: Resazurin microtiter assay (REMA), dose-response curve; assay type: cell-based; settings: Mycobacterium tuberculosis, MC26230STRAIN, 120 h, M. tuberculosis mc2 6230, 7H9 liquid medium, 5 days at 37° C.

Row | Compound | inhibitory activity against BCG bacteria (viable cells in lung tissue) [1] | MIC [2] [µM] | number of viable cells in the lung tissue [3] | MIC50 [4] [µM] | number of viable Mycobacterium tuberculosis in the lung tissue [5] | MIC50 [6] [µM] | MIC ([2]; administered alone, Middlebrook 7H9 with ADC, 5 days at 37° C., resazurin, read-out: MIC) [µM]
1 | CCC[C@H](O)[C@@H](OC)[C@H]1O[C@]1(C)[C@@H](O)C/C=C/[C@@H]1OC(=O)/C=C/C=C/[C@@H](OC)[C@H](O)/C=C/C(C)=C/[C@@H](C)CCC[C@@H](OC)C(O)/C=C/C(C)=C/[C@@H](C)[C@H](O)[C@H]1OC (some centres unmarked) [arenicolide A] | effective inhibitory activity | 0.78 | significantly decreased | ~6.9 (≈ 5.55 µg/mL) | significantly reduced | ~24.6 (≈ 19.8 µg/mL) | –
2 | CC[C@@H](CO)NCCN[C@@H](CC)CO [ethambutol, reference compound] | – | – | – | – | – | – | 3.2
3 | CCC[C@@H]1O[C@@](C)([C@@H](O)C/C=C/[C@@H]2OC(=O)/C=C/C=C/[C@@H](OC)[C@H](O)/C=C/C(C)=C/C(C)CCC[C@@H](OC)[C@H](O)/C=C/C(C)=C/[C@@H](C)[C@H](O)[C@H]2OC)[C@H](O)[C@@H]1OC (some centres unmarked) [arenicolide C] | effective inhibitory activity | – | – | – | – | – | –
